Experimental data reported in patent publication US20250154169A1, “COMPOUNDS AND METHODS FOR MODULATING SPLICING” (REMIX THERAPEUTICS INC., priority 2021, published 2025).
Where two headings read alike, the source gives them in different places.

How the values were obtained:
Type in all cases: cell-based, human
MYB mRNA = assay: Splicing RT-qPCR assay, MYB canonical (CJ) and alternative (AJ) junction mRNA; conditions: Homo sapiens; for AC50: read-out: MYB AJ (AC50, increase in alternative junction mRNA)
Summary of the method: (§1)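 Canonical (CJ) and alternative-exon (AJ) junction mRNAs quantified by one-step RT-qPCR in cell lysates, normalized to housekeeping PPIA for A673 and GAPDH or GUSB for K562. Cells were exposed 24 h at 37 °C to 11-point 3-fold compound series from 10 uM final, with DMSO at or below 0.25%.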

SMN2 mRNA = assay: Splicing RT-qPCR gene panel, SMN2 canonical junction (CJ) mRNA; conditions: Homo sapiens, Tables 4A/4B, read-out: SMN2 (IC50, decrease in CJ mRNA, gene panel)
Method: (§2) Compounds described herein were used to modulate RNA transcript abundance in cells. The expression of a target mRNA was measured by detecting the formation of an exon-exon junction in the canonical transcript (CJ). A compound mediated exon-inclusion event was detected by observing an increase in formation of a new junction with an alternative exon (AJ). Real-time qPCR assays were used to detect these splicing switches and interrogate the potency of various compounds towards different target genes. A high-throughput real time quantitative PCR (RT-qPCR) assay was developed to measure these two isoforms of the mRNA (CJ and AJ) for exemplary genes, such as HTT, SMN2, and MYB, together with a control housekeeping gene, GAPDH or GUSB or PPIA, used for normalization. Briefly, the A673 or K562 cell line was treated with various compounds described herein (e.g., compounds of Formula (I)). After treatment, the levels of the HTT, MYB, or SMN2 mRNA targets were determined from each sample of cell lysate by cDNA synthesis followed by qPCR.
(§3) The A673 cell line was cultured in DMEM with 10% FBS. Cells were diluted with full growth media and plated in a 96-well plate (15,000 cells in 100 ul media per well). The plate was incubated at 37° C. with 5% CO2 for 24 hours to allow cells to adhere. An 11-point 3-fold serial dilution of the compounds was made in DMSO then diluted in media in an intermediate plate. Compounds were transferred from the intermediate plate to the cell plate with the top dose at a final concentration of 10 uM in the well. Final DMSO concentration was kept at or below 0.25%. The cell plate was returned to the incubator at 37° C. with 5% CO2 for an additional 24 hours.
(§4) The K562 cell line was cultured in IMDM with 10% FBS. For K562, cells were diluted with full growth media and plated in either a 96-well plate (50,000 cells in 50 uL media per well) or a 384-well plate (8,000-40,000 cells in 45 uL media per well). An 11-point 3-fold serial dilution of the compounds were made in DMSO then diluted in media in an intermediate plate. Compound was transferred from the intermediate plate to the cell plate with the top dose at a final concentration of 10 uM in the well. Final DMSO concentration was kept at or below 0.25%. Final volume was 100 uL for 96-well plate and 50 uL for 384-well plate. The cell plate was then placed in an incubator at 37° C. with 5% CO2 for 24 hours.
(§5) The cells were then gently washed with 50 uL-100 uL cold PBS before proceeding to addition of lysis buffer. 30 uL-50 uL of room temperature lysis buffer with DNAse I (and optionally RNAsin) was added to each well. Cells were shaken/mixed thoroughly at room temperature for 5-10 minutes for lysis to take place and then 3 uL-5 uL of room temperature stop solution was added and wells were shaken/mixed again. After 2-5 minutes, the cell lysate plate was transferred to ice for RT-qPCR reaction setup. The lysates could also be frozen at −80° C. for later use.
(§6) In some cases, a direct lysis buffer was used. An appropriate volume of 3× lysis buffer (10 mM Tris, 150 mM NaCl, 1.5%-2.5% Igepal and 0.1-1 U/uL RNAsin, pH 7.4) was directly added to either K562 or A673 cells in media and mixed by pipetting 3 times. The plates were then incubated at room temperature with shaking/rocking for 20-50 minutes to allow for lysis to take place. After this time, the cell lysate plate was transferred to ice to set up for the RT-qPCR reactions. The lysates could also be frozen at −80° C. for later use.
(§7) To set up 10 uL RT-qPCR reactions, cell lysates were transferred to 384-well qPCR plates containing the master mix according to the table below. The plates were sealed, gently vortexed, and spun down before the run. The volumes were adjusted accordingly in some instances where the reaction was carried in 20 μL. The table below summarizes the components of the RT-qPCR reactions:
(§8) The RT-qPCR reaction was performed using a QuantStudio (ThermoFisher) under the following fast cycling conditions. […]

Target C mRNA = assay: Splicing RT-qPCR gene panel, Target C canonical junction (CJ) mRNA; conditions: Homo sapiens, Tables 4A/4B, read-out: Target C (IC50, decrease in CJ mRNA, gene panel)
Method: as §2, §3, §4, §5, §6, §7, §8

HTT mRNA [1] = assay: Splicing RT-qPCR gene panel, HTT canonical junction (CJ) mRNA; conditions: Homo sapiens, Tables 4A/4B, read-out: HTT (IC50, decrease in CJ mRNA, gene panel)
Method: as §2, §3, §4, §5, §6, §7, §8

HTT mRNA [2] = assay: Splicing RT-qPCR assay, HTT canonical (CJ) and alternative (AJ) junction mRNA; conditions: Homo sapiens, A673 or K562 cells, 24 hours compound treatment; for IC50: 24 h, read-out: HTT CJ (IC50, decrease in canonical junction mRNA); for AC50: read-out: HTT AJ (AC50, increase in alternative junction mRNA)
Summary of the method: as §1

[3] = Tables 4A/4B, canonical junction qPCR panel, read-out: MYB (IC50, decrease in CJ mRNA, gene panel)
[4] = 24 h, A673 or K562 cells, 24 hours compound treatment, RT-qPCR
[5] = 24 h, A673 or K562 cells, 24 hours compound treatment, RT-qPCR, read-out: MYB CJ (IC50, decrease in canonical junction mRNA)

Compound | IC50 (MYB mRNA; [3]) [nM] | IC50 (SMN2 mRNA) [nM] | IC50 (Target C mRNA) [nM] | IC50 (HTT mRNA [1]) [nM] | IC50 (HTT mRNA [2]) [nM] | IC50 (MYB mRNA; [5]) [nM] | AC50 (HTT mRNA [2]) [nM] | AC50 (MYB mRNA; [4]) [nM]
Cc1cn2cc(NC(=O)c3ccc(N4CCC(NC(C)(C)C)C4)c4cc(C)oc34)cc(F)c2n1 (stereo not drawn) [Compound 203] | 100 to 1000 | < 100 | > 10000 | > 10000 | – | – | – | –
Cc1cn2cc(NC(=O)c3ccc(N4CCN(C)CC4)c4cn(C)nc34)cc(F)c2n1 [Compound 207] | < 100 | < 100 | 1000 to 10000 | 100 to 1000 | – | – | – | –
Cc1cn2cc(NC(=O)c3ccc(C4C[C@@H](C)N[C@@H](C)C4)c4cn(C)nc34)cc(F)c2n1 (stereo partly drawn) [Compound 211] | 100 to 1000 | < 100 | 1000 to 10000 | 1000 to 10000 | – | – | – | –
Cc1cc2c(N3CCNCC3)ccc(C(=O)Nc3cc(F)c4nc(C)oc4c3)c2o1 [Compound 218] | 100 to 1000 | < 100 | 1000 to 10000 | 1000 to 10000 | – | – | – | –
Cc1cn2cc(NC(=O)c3ccc(N4CCNC(C)C4)c4cn(C)nc34)cc(F)c2n1 (stereo not drawn) [Compound 228] | < 100 | < 100 | 100 to 1000 | 100 to 1000 | – | – | – | –

The next lines start with results.

IC50 (MYB mRNA; [3]) [nM] | IC50 (SMN2 mRNA) [nM] | IC50 (Target C mRNA) [nM] | IC50 (HTT mRNA [1]) [nM] | IC50 (HTT mRNA [2]) [nM] | IC50 (MYB mRNA; [5]) [nM] | Compound | AC50 (HTT mRNA [2]) [nM] | AC50 (MYB mRNA; [4]) [nM]
< 100 | < 100 | > 10000 | 1000 to 10000 | – | – | Cc1cn2cc(NC(=O)c3ccc(N4CC[C@H](NC5(CF)CC5)C4)c4cn(C)nc34)cc(F)c2n1 (single isomer, unassigned) [Compound 449] | – | –
< 100 | < 100 | 1000 to 10000 | 1000 to 10000 | – | – | Cc1nc2c(F)cc(NC(=O)c3ccc(N4CCNCC4)c4cn(C)nc34)cc2o1 [Compound 234] | – | –
100 to 1000 | < 100 | 1000 to 10000 | 100 to 1000 | – | – | Cc1cn2cc(NC(=O)c3ccc(N4CCNC5(CC5)C4)c4cn(C)nc34)cc(F)c2n1 [Compound 241] | – | –
< 100 | < 100 | 100 to 1000 | < 100 | – | – | Cc1cn2cc(NC(=O)c3ccc(N4CCN5CCCC5C4)c4cn(C)nc34)cc(F)c2n1 (stereo not drawn) [Compound 250] | – | –
< 100 | < 100 | 1000 to 10000 | 100 to 1000 | – | – | Cc1cn2cc(NC(=O)c3ccc(N4CCC(N(C)C)CC4)c4cn(C)nc34)cc(F)c2n1 [Compound 251] | – | –
– | – | – | – | 1000 to 10000 | 1000 to 10000 | CN[C@@H]1CCN(c2ccc(C(=O)Nc3nc(OC)c4nn(C)cc4n3)c3nn(C)cc23)C1 [Compound 624, N-{7-methoxy-2-methylpyrazolo[4,3-d]pyrimidin-5-yl}-2-methyl-4-[(3R)-3-(methylamino)pyrrolidin-1-yl]indazole-7-carboxamide] | 1000 to 10000 | 1000 to 10000
– | – | – | – | 1000 to 10000 | 100 to 1000 | CN[C@@H]1CCN(c2ccc(C(=O)Nc3cn4cc(C)nc4c(OC4CC4)n3)c3nn(C)cc23)C1 [Compound 626, N-{8-cyclopropoxy-2-methylimidazo[1,2-a]pyrazin-6-yl}-2-methyl-4-[(3R)-3-(methylamino)pyrrolidin-1-yl]indazole-7-carboxamide] | 1000 to 10000 | 100 to 1000
